# Test results as given in paper PMC4467156, “A new chemical inhibitor of angiogenesis and tumorigenesis that targets the VEGF signaling pathway upstream of Ras” (Oncotarget, 2015).
# Where two headings read alike, the source gives them in different places.
# Key:
# 3T3 cells = test: 3H-thymidine incorporation, 3T3; format: cell-based; conditions: 3T3 fibroblasts
# Protocol: Cells were treated with molecules in complete medium. After 22 h, 1 μCi per well H^3 thymidine was added for 2 hours. Cells are then fixed by 10% trichloroacetic acid and harvested with 0.2N NaOH, 1% SDS. Radioactivity was measured in a beta counter.
# Met = Met (Homo sapiens, UniProt P08581); test: In vitro kinase assay Met; format: biochemical; conditions: concentrations up to 50 μM
# Chain of Met (P08581 25-1390): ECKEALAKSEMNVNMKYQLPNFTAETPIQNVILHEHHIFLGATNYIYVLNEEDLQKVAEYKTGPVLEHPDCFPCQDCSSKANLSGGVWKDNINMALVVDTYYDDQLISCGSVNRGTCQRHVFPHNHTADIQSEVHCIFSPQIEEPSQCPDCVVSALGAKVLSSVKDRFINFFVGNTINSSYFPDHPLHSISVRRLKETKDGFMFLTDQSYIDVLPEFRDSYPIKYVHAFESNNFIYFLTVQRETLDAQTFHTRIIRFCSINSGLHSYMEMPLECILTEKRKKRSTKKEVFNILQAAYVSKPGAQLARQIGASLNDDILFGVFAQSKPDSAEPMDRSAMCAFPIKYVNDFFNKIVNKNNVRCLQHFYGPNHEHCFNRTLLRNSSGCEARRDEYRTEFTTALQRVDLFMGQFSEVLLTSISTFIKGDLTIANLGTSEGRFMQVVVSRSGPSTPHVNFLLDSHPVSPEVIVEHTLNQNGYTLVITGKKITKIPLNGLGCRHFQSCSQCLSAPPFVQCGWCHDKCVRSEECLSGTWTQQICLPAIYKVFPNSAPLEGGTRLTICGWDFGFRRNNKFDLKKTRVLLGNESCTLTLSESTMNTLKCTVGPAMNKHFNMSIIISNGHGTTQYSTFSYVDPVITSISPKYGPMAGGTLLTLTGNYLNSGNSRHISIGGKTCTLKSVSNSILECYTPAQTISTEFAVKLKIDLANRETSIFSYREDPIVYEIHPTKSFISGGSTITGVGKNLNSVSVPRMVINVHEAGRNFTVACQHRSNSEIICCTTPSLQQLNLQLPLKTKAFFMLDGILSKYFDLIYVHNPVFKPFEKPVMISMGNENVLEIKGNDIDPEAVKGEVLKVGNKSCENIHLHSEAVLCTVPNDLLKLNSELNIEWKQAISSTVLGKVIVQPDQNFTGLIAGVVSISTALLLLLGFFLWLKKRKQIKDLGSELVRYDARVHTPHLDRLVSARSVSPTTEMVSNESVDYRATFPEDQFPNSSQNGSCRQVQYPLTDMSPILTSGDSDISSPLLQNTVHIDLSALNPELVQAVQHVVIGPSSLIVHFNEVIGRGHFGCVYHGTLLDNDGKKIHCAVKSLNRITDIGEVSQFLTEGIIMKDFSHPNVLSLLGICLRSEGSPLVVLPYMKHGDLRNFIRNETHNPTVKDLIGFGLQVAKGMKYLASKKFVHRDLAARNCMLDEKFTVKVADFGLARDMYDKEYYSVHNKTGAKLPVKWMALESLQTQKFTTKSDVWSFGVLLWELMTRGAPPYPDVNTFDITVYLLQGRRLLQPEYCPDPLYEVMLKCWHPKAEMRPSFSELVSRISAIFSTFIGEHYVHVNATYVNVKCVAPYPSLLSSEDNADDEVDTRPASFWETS
# Protocol: (§1) We first wondered whether COB223 required to be internalized to exert its biological effect. For this, we synthesized a covalent complex between BSA and COB223 and purified it. […] In vitro kinase assays were performed with a panel of purified protein-kinases involved in mitogenic signaling, including VEGFR2, FGFR1, FGFR2, PDGFRß, Met, Raf, MEK1, ERK1, ERK2, PKCα, PKCβI, PKCβII, PKCζ as indicated in Table 2. […] We then analyzed the effect of COB223 on VEGF-induced phosphorylations of VEGFR2, MEK and ERK1/2 (Figure 9). […] (Figure 9A, 9B). […] It was also specific of the p42/p44 MAP kinase pathway as activation of p38 MAP kinase phosphorylation in HUVEC cells by VEGF or serum was unaffected by COB223 (data not shown). The activation of src phosphorylation by VEGF in HUVECs was also unaffected by COB223 (data not shown).
# ERK1/2 phosphorylation = ERK1/2 phosphorylation in 3T3 fibroblasts; format: cell-based; conditions: data not shown
# PDGFRß = PDGFRß (Homo sapiens, UniProt P09619); test: In vitro kinase assay PDGFRß; format: biochemical; conditions: concentrations up to 50 μM
# Chain of PDGFRß (P09619 33-1106, species assumed): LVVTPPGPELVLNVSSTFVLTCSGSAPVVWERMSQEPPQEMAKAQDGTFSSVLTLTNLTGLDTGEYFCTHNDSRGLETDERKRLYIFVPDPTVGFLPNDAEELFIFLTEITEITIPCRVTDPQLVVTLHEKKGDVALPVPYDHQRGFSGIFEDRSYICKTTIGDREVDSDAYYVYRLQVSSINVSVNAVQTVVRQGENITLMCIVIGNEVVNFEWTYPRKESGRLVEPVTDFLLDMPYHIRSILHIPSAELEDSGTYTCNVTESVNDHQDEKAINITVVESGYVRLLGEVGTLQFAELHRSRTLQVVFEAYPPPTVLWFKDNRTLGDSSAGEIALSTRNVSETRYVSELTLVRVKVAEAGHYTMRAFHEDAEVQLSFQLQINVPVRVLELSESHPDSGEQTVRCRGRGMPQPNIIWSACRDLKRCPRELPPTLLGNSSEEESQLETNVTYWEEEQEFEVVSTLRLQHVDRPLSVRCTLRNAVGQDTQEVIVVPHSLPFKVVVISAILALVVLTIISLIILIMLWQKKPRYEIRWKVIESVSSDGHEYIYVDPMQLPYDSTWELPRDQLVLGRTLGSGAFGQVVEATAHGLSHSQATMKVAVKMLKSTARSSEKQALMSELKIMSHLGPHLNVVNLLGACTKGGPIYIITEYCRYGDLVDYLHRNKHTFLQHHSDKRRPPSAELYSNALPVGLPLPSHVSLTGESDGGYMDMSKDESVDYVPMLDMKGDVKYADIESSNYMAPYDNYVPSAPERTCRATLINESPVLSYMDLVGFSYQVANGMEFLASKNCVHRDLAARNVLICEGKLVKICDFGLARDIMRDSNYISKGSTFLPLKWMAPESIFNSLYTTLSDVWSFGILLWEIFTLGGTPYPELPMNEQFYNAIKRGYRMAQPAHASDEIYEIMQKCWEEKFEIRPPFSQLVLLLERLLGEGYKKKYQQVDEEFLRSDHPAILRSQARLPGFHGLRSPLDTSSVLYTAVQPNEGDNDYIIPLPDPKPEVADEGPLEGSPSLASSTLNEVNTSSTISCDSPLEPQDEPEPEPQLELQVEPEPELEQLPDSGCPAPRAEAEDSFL
# Protocol: as §1
# HUVEC cells = test: Cell viability WST-1, HUVEC; format: cell-based, human; conditions: confluent HUVEC, 24 h at 37°C
# Protocol: Once they had reached confluency, cells were kept for 24 hours in medium supplemented with 0.5% FCS (LLC/2 and 3T3 cells) or 2.5% FCS (HUVEC and HMVEC-d cells), in the presence of COB223 at different concentrations. WST-1 assay (Roche Diagnostic, Meylan, France) was then performed according to the manufacturer's instructions.
# MEK phosphorylation = test: Western blot, MEK phosphorylation in HUVEC; format: cell-based, human; conditions: 10 ng/mL VEGF-A 15 min, 25 μM COB223
# Protocol: Figure 9 Effect of COB223 on growth factor-induced VEGF-R2, MEK and ERK phosphorylations (A) Serum-starved HUVEC cells were incubated for 15 min in the presence of either 10 ng/mL VEGF-A or 20 ng/mL FGF-2 and in the absence or the presence of 25 μM COB223. The phosphorylations of VEGFR2 on tyrosine 1175 or tyrosine 1214, of MEK and ERK1/2 were then analyzed by Western blot analysis of the cell lysates as described in Material and Methods. Western blots for total VEGFR2, MEK and ERK1/2 were used as loading controls. The blots shown in Figure 9A were obtained in one representative experiment. (B) The hybridization signals observed in 5 similar but independent experiments were quantitated and the ratios between phospho-VEGFR2(Y1175) or (Y1214) and VEGFR2 signals were normalized to the value observed in the absence of COB223. (C) The hybridization signals observed in 5 similar but independent experiments were quantitated and the ratios between phospho-ERK1/2 and ERK1/2 and between phospho-MEK and MEK were normalized to the values observed in the absence of COB223. Additional experiments performed with 10% fetal calf serum (FCS) as a mitogen were included in this analysis. * : p < 0.05; ** : p < 0.01
# Serum-starved HUVEC cells were incubated for 15 min in the presence of either 10 ng/mL VEGF-A or 20 ng/mL FGF-2 and in the absence or the presence of indicated concentration of COB223. […]
# HMEC-GFP spheroids = test: Sprouting of HMEC-GFP spheroids into collagen gels; format: cell-based; conditions: Homo sapiens
# Protocol: To prepare spheroids, HMEC-GFP cells were seeded at 3000 cells/well in round-bottom 96-multiwell plates in DMEM 1 g/L glucose (Eurobio, Les Ulis, France) containing 0.25% methylcellulose. 48 h later, the spheroids were collected, transferred into flat-bottom 96-well plates and embedded in collagen gel (1.2 mg/mL type I collagen) prepared in a Iscove's modified Dulbecco's medium, supplemented with FGF-2 (10 ng/mL), 50 U/mL penicillin and 50 μg/mL streptomycin. Treatment with COB223 (10 and 20 μM) started right after spheroids were included in the collagen gels. Sprouting was allowed for 24 h at 37°C. Images were acquired by fluorescence microscopy and analysis of gel invasion was performed using the freeware Image J. Statistical analysis was performed using a Kruskal & Wallis test.
# HMEC-GFP cells were developed as spheroids in an Iscove's modified Dulbecco's medium containing 0.2% methylcellulose in round-bottom 96-multiwell plate. Two days later, spheroids were collected and invasion was allowed in a Iscove's modified Dulbecco's medium, supplemented with 1.2 mg/mL collagen I, 50 U/mL Penicillin, 50 μg/mL streptomycin. Molecules (10 or 20 μM) or FGF-2 (10 ng/mL) were added in the preparation before collagen gelification.
# PKC ζ = PKC ζ (Homo sapiens, UniProt Q05513); test: In vitro kinase assay PKC ζ; format: biochemical; conditions: concentrations up to 50 μM
# Chain of PKC ζ (Q05513 whole entry): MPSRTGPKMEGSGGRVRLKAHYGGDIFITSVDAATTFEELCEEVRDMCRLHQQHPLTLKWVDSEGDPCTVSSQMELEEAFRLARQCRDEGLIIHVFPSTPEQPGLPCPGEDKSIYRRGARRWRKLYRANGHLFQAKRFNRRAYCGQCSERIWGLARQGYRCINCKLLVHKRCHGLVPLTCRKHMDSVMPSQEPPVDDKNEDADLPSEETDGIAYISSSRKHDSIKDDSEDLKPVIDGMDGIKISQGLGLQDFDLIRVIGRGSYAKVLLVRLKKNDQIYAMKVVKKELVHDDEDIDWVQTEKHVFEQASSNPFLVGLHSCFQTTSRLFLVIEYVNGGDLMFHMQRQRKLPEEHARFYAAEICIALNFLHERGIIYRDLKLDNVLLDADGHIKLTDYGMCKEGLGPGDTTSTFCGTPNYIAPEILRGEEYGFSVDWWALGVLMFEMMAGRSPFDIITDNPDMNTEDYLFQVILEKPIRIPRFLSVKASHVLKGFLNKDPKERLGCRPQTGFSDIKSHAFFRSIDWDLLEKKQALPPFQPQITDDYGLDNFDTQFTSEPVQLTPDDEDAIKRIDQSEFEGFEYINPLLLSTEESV
# Protocol: as §1
smiles,measurement,setting,value
"CN(C)c1cccc2c(S(=O)(=O)NCCCN3CCN(CCCNC(=O)OC(C)(C)C)CC3)cccc12 [COB223, tert-Butyl 3-(4-(3-(5-(dimethylamino)naphthalene-1-sulfonamido)propyl)piperazin-1-yl) propylcarbamate]",effect on cell proliferation,3T3 cells,no effect
same,kinase inhibition,Met,None of them was inhibited
same,FGF2-induced or serum-induced phosphorylation of ERK1/2,ERK1/2 phosphorylation,did not affect
same,kinase inhibition,PDGFRß,None of them was inhibited
same,cytotoxic concentrations,HUVEC cells,> 50 µM
same,VEGF-induced phosphorylation of MEK,MEK phosphorylation,significantly inhibited
same,inhibition at 10 µM,"HMEC-GFP spheroids; 10 μM COB223, 10 ng/ml FGF-2, collagen I gel, read-out: inhibition of FGF-2-stimulated sprouting",70%
same,inhibition at 10 µM,"HMEC-GFP spheroids; 10 μM COB223, collagen I gel, read-out: inhibition of basal sprouting",50%
same,kinase inhibition,PKC ζ,None of them was inhibited
